Tests used:
[1] = molecular target: T1, immobilized glucose isomerase (Sweetzyme™) (Streptomyces murinus, UniProt P37031); assay: Glucose isomerase performance with substrate containing HMF; type: biochemical, S. murinus; parameters: purchased Novozymes A/S; settings: for Activity: Syrup with 0.1 w/w % HMF
Protocol: To the substrate was added hydroxymethylfurfural (HMF) to a final concentration of 0.1 w/w % HMF.

[2] = molecular target: T1, immobilized glucose isomerase (Sweetzyme™); assay: Effect of HMF on the initial activity of Sweetzyme™ (batch bottles); type: biochemical, S. murinus; parameters: purchased Novozymes A/S; settings: for initial activity: 60° C.
Protocol: 2.5 gram immobilized glucose isomerase (Sweetzyme™) was loaded to a 250 mL square shaped bottles with screw cap. The bottles were placed in an orbital shaker and heated to 60° C.
The following conditions were applied for 4 bottles. The term conversion is defined as the fructose/glucose ratio.
Conversion vs. time is presented in FIG. 10 and the initial activity is calculated to be 389.
Conversion vs. time is presented in FIG. 11 and the initial activity is calculated to be 378.
Conversion vs. time is presented in FIG. 12 and the initial activity is calculated to be 364.

T1 sequence (P37031 whole entry): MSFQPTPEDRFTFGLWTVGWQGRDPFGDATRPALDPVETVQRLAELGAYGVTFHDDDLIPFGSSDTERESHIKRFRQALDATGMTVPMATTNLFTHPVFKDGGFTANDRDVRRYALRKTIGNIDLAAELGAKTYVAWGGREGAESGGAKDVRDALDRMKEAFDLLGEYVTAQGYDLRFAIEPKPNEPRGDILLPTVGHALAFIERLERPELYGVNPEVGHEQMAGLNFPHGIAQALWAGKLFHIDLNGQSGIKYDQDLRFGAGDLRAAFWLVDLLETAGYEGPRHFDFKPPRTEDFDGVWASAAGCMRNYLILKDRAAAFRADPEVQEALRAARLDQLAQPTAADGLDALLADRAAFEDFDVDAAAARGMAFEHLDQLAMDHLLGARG

## O=Cc1ccc(CO)o1 [HMF, 5-(hydroxymethyl)-2-furaldehyde]
[1]; time 94.25 h
  Activity: 360.39 IGIU/g
[1]; time 116.25 h
  Activity: 267.97 IGIU/g
[1]; time 139.50 h
  Activity: 368.20 IGIU/g
[1]; time 162.75 h
  Activity: 359.92 IGIU/g
[1]; time 237.25 h
  Activity: 367.23 IGIU/g
[1]; time 259.17 h
  Activity: 353.51 IGIU/g
[1]; time 283.67 h
  Activity: 363.92 IGIU/g
[1]; time 311.08 h
  Activity: 358.90 IGIU/g
[1]; after 9 days with substrate containing 0.1 w/w % HMF
  decay rate compared to a column with normal syrup: not affected
[2]; Bottle 2: 0.01 w/w % HMF in 45% glucose syrup
  initial activity: 389
[2]; Bottle 3: 0.1 w/w % HMF in 45% glucose syrup
  initial activity: 378
[2]; Bottle 4: 1 w/w % HMF in 45% glucose syrup
  initial activity: 364
[2]; FIG. 13, 0.01-1 w/w % HMF
  Sweetzyme™ activity as a function of HMF concentration: not seriously affected
